Laboratory results taken from US12590093B2, “Indolo[2′,3′:3,4]pyrido[2,1-b]quinazoline compound and use thereof” (INSTITUTE OF MEDICINAL BIOTECHNOLOGY CHINESE ACADEMY OF …, priority 2019, dated 2026).
“Also recorded” adds a separate entry of the source.

Columns and labels:
[1] = test system: ABCA1; assay: ABCA1 expression in RAW 264.7 cells by western-blot, with or without si-AMPK; assay type: cell-based, Murine
Method: Murine macrophages RAW 264.7 cells were subcultured about every 48 h. When the cells were approximately 100% confluent, the old culture medium was removed, and the cells were washed with PBS and digested with trypsin at an appropriate amount for about 2 min at RT. After the digestion solution was removed, the RPMI-1640 complete medium containing 10% FBS was added immediately to inhibit the activity of trypsin. The cells in the culture flask were repeatedly and gently blown with a curved straw, so that they were completely detached from the bottom of the flask and dispersed into the single-cell suspension. The cells were seeded into a new cell flask at a density of 1:4-1:6, and added with an appropriate amount of the complete medium. The flask was placed in an incubator and cultured at 37° C., 5% CO2. RAW264.7 cells were pretreated with si-AMPK (AMPK siRNA) for 24 h, and then treated with compound TR3 (1 μM) for 24 h. The expression of ABCA1 and AMPK was detected by western-blot.
The effect of TR3 on AMPK was detected by western-blot.

[2] = test system: ABCA1; assay: ABCA1 up-regulation, luciferase reporter in ABCA1P-LUC HepG2 cells; assay type: cell-based; conditions: Homo sapiens, 18 h, maximum up-regulation fold of luciferase activity versus DMSO, read-out: ABCA1 max
Method: Experiments were conducted to detect whether the compounds of the disclosure can pharmacologically up-regulate the expression of ABCA1 and SR-BI. Firstly, ABCA1P-LUC HepG2 cells or SR-BI-LUC HepG2 cells in logarithmic growth phase were digested, diluted in cell culture medium, and counted. Cells were seeded into 96-well plates at a density of 5×10^5/ml (100 μL of the single-cell suspension per well). After cells fully adhered (about 6 h), the medium containing 10% FBS was removed, and the cells were gently washed with PBS. Serum free MEM-EBSS medium (200 μL per test well) and 2 μL of the compounds to be tested (at a final concentration of 10 μg/mL) were added to each test well, and meanwhile, DMSO at a corresponding concentration was added to the control well. After 18-24 h, the medium was removed. Cell Luciferase activity was measured by a method as described in the Luciferase Assay System. By optimizing the final concentration of DMSO, the treatment time of the compounds on the cells and the number of cells seeded into each well during the screening, the final screening conditions were determined as follows: each well is seeded with 5×10^4 cells, DMSO is added at a final concentration of 1%, and the sample is treated for 18 h.
The ratio of change of luciferase activity is calculated with the following formula: Ratio of change (%)=A/B×100;
wherein A is the luciferase activity (RLU) measured after the compound to be tested is added, and B is the luciferase activity (RLU) measured after the blank control (DMSO) is added. The luciferase activity of cells in each well was measured, and the dose-effect relationship between the concentration of the compound and the ratio of change of the luciferase activity was determined to calculate the EC50.

[3] = target: T1, PPARγ (Homo sapiens, UniProt P37231); assay: Nuclear receptor reporter gene transient transfection (pBIND-hPPARs-LBD) in HepG2 cells, PPARγ; assay type: cell-based; conditions: FIG. 2, result in words
T1 construct: expressed in transfected cells; host or cells: HepG2
T1 sequence (P37231 238-503 limits assumed): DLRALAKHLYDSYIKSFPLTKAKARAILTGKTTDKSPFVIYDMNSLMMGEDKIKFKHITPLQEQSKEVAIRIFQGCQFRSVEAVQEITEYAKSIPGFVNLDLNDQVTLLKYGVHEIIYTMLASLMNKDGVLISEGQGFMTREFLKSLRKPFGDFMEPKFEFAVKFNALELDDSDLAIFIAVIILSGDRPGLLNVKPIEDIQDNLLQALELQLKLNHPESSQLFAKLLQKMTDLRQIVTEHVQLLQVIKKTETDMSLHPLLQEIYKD
Method: (§1) HepG2 cells in logarithmic growth phase were digested, seeded into the white/clear 96-well plate at a density of 5×10^4 cells/well/100 μL until the cells grew to about 90% confluence and in good condition. 0.5 μL liposome (Lipofectamine® 2000) diluted with blank medium to 25 μL per well and incubated at room temperature for 5 min. The corresponding plasmids DNA (nuclear receptor plasmid:Gal4=1:10) were diluted in blank DMEM medium to 25 μL/well (mixing of two plasmids), then mixed evenly with the diluted liposome, and incubated for 20 min at 37° C. The DNA-liposome complex (50 μL per well) was added with the DMEM complete medium (100 μL per well) and mixed thoroughly to obtain a DNA-liposome complex cell culture. The cell medium was discarded, and replaced with the DNA-liposome complex cell culture (150 μL/well) (37° C., 5% CO2). After 6 h, the DNA-liposome complex cell culture medium was discarded, and 200 μL serum-free DMEM medium containing the compound at an appropriate concentration was added to each test well, and cultured for 18-24 h. The cell Luciferase activity was measured by the method as described in the Luciferase Assay System.

[4] = target: T2, LXRβ (Homo sapiens, UniProt P55055); assay: Nuclear receptor reporter gene transient transfection (pBIND-hLXRs-LBD) in HepG2 cells, LXRβ; assay type: cell-based
T2 construct: expressed in transfected cells; host or cells: HepG2
T2 sequence (P55055 222-460 limits assumed): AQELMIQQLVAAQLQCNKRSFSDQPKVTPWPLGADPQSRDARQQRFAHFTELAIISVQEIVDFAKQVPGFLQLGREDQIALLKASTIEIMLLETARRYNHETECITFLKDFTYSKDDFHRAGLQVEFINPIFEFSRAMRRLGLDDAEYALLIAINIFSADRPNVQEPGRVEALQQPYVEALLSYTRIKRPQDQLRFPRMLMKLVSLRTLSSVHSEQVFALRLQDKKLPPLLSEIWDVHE
Method: as §1

LXRβ max ([4]; HepG2 cells, reporter gene, 18-24 h): 1.42
Structure (SMILES): c1ccc2c(c1)CN1CCc3c([nH]c4ccccc34)C1=N2 [TR3, 5,7,8,13-tetrahydroindolo[2′,3′:3,4]pyrido[2,1-b]quinazoline]
up-regulation of ABCA1 expression after addition of si-AMPK ([1]; RAW 264.7 cells pretreated with si-AMPK 24 h, then 1 μM for 24 h): inhibited by the addition of interfering RNA (si-AMPK)
expression of ABCA1 ([1]; RAW 264.7 cells, 1 μM, western-blot, FIG. 11): significantly up-regulated
maximal fold induction [2]: 2.26
activation of PPARγ [3]: simultaneously activated PPARα/γ/δ and LXRα/β to a certain extent
LXRβ agonist activity ([4]; result in words): showed agonist activity; also recorded: simultaneously activated PPARα/γ/δ and LXRα/β to a certain extent
